Results taken from PubChem BioAssay AID330 (DTP/NCI, 2004).
Several values for one entry are separate records, joined by “and”; a condition that tells them apart may be missing. Equal entries are not always repeated. Inconclusive results and toxic doses are left out. Rule for the calls: active = survival T/C of 150% or more; inactive = T/C below 125% in these data.

Test system: P388 leukemia ip, CD2F1 mice, survival T/C
Experiment: NCI In Vivo Anticancer Drug Screen. Data for tumor model P388 Leukemia (intraperitoneal) in CD2F1 (CDF1) mice
Conditions: endpoint: median survival time, higher = longer survival
In short: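 Mice carrying the transplanted tumor received test compound or vehicle. Survival was recorded in each group, and the value is the treated-group measurement divided by that of the vehicle-treated control group.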

[1] = dose: 25.0 mg/kg/injection, schedule: Q01DX009 (ip), vehicle: saline with Tween-80
[2] = dose: 50.0 mg/kg/injection, schedule: Q01DX009 (ip), vehicle: saline with Tween-80
[3] = dose: 100.0 mg/kg/injection, schedule: Q01DX009 (ip), vehicle: saline with Tween-80
[4] = dose: 200.0 mg/kg/injection, schedule: Q01DX009 (ip), vehicle: saline with Tween-80
[5] = dose: 50.0 mg/kg/injection, schedule: Q01DX005 (ip), vehicle: saline with Tween-80
[6] = dose: 100.0 mg/kg/injection, schedule: Q01DX005 (ip), vehicle: saline with Tween-80
[7] = dose: 200.0 mg/kg/injection, schedule: Q01DX005 (ip), vehicle: saline with Tween-80

Measured: T/C

CC(=O)OC1CC2CC1C1C3C=CC(C3)C21 (configuration not stated)
inactive: [1] 100 % of control | [2] 104 % of control | dose: 100.0 mg/kg/injection, schedule: Q01DX001 (ip), vehicle: saline 100 % of control | dose: 200.0 mg/kg/injection, schedule: Q01DX001 (ip), vehicle: saline 91 % of control | dose: 400.0 mg/kg/injection, schedule: Q01DX001 (ip), vehicle: saline 95 % of control

CCOC(=O)c1ccc(NC(=O)Nc2cc(OC)ccc2OC)cc1
inactive: dose: 60.0 mg/kg/injection, schedule: Q01DX005 (ip), vehicle: Klucel (hydroxypropylcellulose) (HPC) 98 % of control | dose: 120.0 mg/kg/injection, schedule: Q01DX005 (ip), vehicle: Klucel (hydroxypropylcellulose) (HPC) 99 % of control | dose: 240.0 mg/kg/injection, schedule: Q01DX005 (ip), vehicle: Klucel (hydroxypropylcellulose) (HPC) 101 % of control

C1OCN2CSCC12 (configuration not stated)
inactive: dose: 100.0 mg/kg/injection, schedule: Q04DX002 (ip), vehicle: saline with Tween-80 116 % of control

CC1=C(Sc2ccc(Br)cc2)C(N)Nc2nc(N)nc(N)c21 (configuration not stated)
inactive: dose: 60.0 mg/kg/injection, schedule: Q01DX005 (ip), vehicle: saline with Tween-80 89 % of control | dose: 120.0 mg/kg/injection, schedule: Q01DX005 (ip), vehicle: saline with Tween-80 89 % of control

CCOC(=O)C1(c2ccccc2)C(=O)Oc2ccccc21 (configuration not stated)
inactive: [2] 107 % of control | [3] 124 % of control | [4] 106 % of control

Nc1nc(SCc2ccccc2)sc1C(=O)N(Cc1ccccc1)Cc1ccccc1
inactive: dose: 50.0 mg/kg/injection, schedule: Q01DX009 (ip), vehicle: Klucel (hydroxypropylcellulose) (HPC) 98 % of control | dose: 100.0 mg/kg/injection, schedule: Q01DX009 (ip), vehicle: Klucel (hydroxypropylcellulose) (HPC) 100 % of control | dose: 200.0 mg/kg/injection, schedule: Q01DX009 (ip), vehicle: Klucel (hydroxypropylcellulose) (HPC) 100 % of control

CCOC(=O)c1nnn(Cc2ccccc2)c1N
inactive: dose: 12.5 mg/kg/injection, schedule: Q01DX009 (ip), vehicle: saline with Tween-80 104 % of control | [1] 100 % of control | [2] 100 % of control | [3] 104 % of control

Cc1cc(OC(=O)N2CCCCC2)c(C(C)C)cc1[N+](C)(C)C
inactive: dose: 0.02 mg/kg/injection, schedule: Q01DX009 (ip), vehicle: saline 100 % of control | dose: 0.03 mg/kg/injection, schedule: Q01DX009 (ip), vehicle: saline 100 % of control | dose: 0.06 mg/kg/injection, schedule: Q01DX009 (ip), vehicle: saline 90 % of control

O=C(CCl)NC(O)C(Cl)(Cl)Cl (configuration not stated)
inactive: [5] 101 % of control | [6] 99 % of control | [7] 103 % of control

CCOc1nc(C)c(C)c(-c2ccc(OC)c(OC)c2OCc2ccccc2)c1C#N
inactive: dose: 0.05 mg/kg/injection, schedule: Q01DX009 (ip), vehicle: other 117 % of control | dose: 0.1 mg/kg/injection, schedule: Q01DX009 (ip), vehicle: other 96 % of control | dose: 0.2 mg/kg/injection, schedule: Q01DX009 (ip), vehicle: other 101 % of control | dose: 0.4 mg/kg/injection, schedule: Q01DX009 (ip), vehicle: other 100 % of control and 107 % of control | dose: 0.8 mg/kg/injection, schedule: Q01DX009 (ip), vehicle: other 110 % of control | dose: 1.6 mg/kg/injection, schedule: Q01DX009 (ip), vehicle: other 117 % of control | dose: 3.2 mg/kg/injection, schedule: Q01DX009 (ip), vehicle: other 115 % of control | dose: 6.4 mg/kg/injection, schedule: Q01DX009 (ip), vehicle: DMSO 103 % of control | dose: 6.4 mg/kg/injection, schedule: Q01DX009 (ip), vehicle: other 110 % of control | dose: 12.8 mg/kg/injection, schedule: Q01DX009 (ip), vehicle: DMSO 94 % of control | dose: 25.6 mg/kg/injection, schedule: Q01DX009 (ip), vehicle: DMSO 94 % of control | dose: 51.2 mg/kg/injection, schedule: Q01DX009 (ip), vehicle: DMSO 97 % of control | dose: 100.0 mg/kg/injection, schedule: Q01DX009 (ip), vehicle: other 104 % of control | dose: 102.0 mg/kg/injection, schedule: Q01DX009 (ip), vehicle: DMSO 94 % of control | dose: 200.0 mg/kg/injection, schedule: Q01DX009 (ip), vehicle: other 115 % of control | dose: 400.0 mg/kg/injection, schedule: Q01DX009 (ip), vehicle: other 100 % of control

[Cl][Ni][Cl]
inactive: dose: 0.78 mg/kg/injection, schedule: Q01DX009 (ip), vehicle: saline 100 % of control | dose: 1.56 mg/kg/injection, schedule: Q01DX009 (ip), vehicle: saline 103 % of control | dose: 3.13 mg/kg/injection, schedule: Q01DX009 (ip), vehicle: saline 100 % of control | dose: 6.25 mg/kg/injection, schedule: Q01DX009 (ip), vehicle: saline 99 % of control | dose: 12.5 mg/kg/injection, schedule: Q01DX009 (ip), vehicle: saline 99 % of control and 101 % of control

O=C(Nc1ccccc1C(=O)c1ccccc1)Nc1ccc(F)cc1[N+](=O)[O-]
inactive: [2] 97 % of control | [3] 109 % of control | [4] 94 % of control

O=C(Nc1ccc(Cl)cc1C(F)(F)F)Oc1ccc(-c2ccccc2)cc1Br
inactive: dose: 50.0 mg/kg/injection, schedule: Q01DX009 (ip), vehicle: saline 95 % of control | dose: 100.0 mg/kg/injection, schedule: Q01DX009 (ip), vehicle: saline 88 % of control | dose: 200.0 mg/kg/injection, schedule: Q01DX009 (ip), vehicle: saline 97 % of control

S=c1[nH]c(=S)c2[nH]cnc2[nH]1
inactive: [5] 102 % of control | [6] 100 % of control | [7] 100 % of control

O=C(O)c1cc(-c2cccc3ccccc23)nc2ccccc12
inactive: [5] 94 % of control | [6] 94 % of control | [7] 94 % of control

CC1CC2=C(C(=O)c3ccccc3C2=O)C(C)O1 (configuration not stated)
inactive: dose: 60.0 mg/kg/injection, schedule: Q01DX005 (ip), vehicle: saline 106 % of control | dose: 120.0 mg/kg/injection, schedule: Q01DX005 (ip), vehicle: saline 92 % of control | dose: 240.0 mg/kg/injection, schedule: Q01DX005 (ip), vehicle: saline 96 % of control

CCOC(=O)C(Cc1ccccc1[N+](=O)[O-])(NC(C)=O)C(=O)OCC
inactive: [2] 94 % of control | [3] 93 % of control | [4] 100 % of control | dose: 400.0 mg/kg/injection, schedule: Q01DX009 (ip), vehicle: saline with Tween-80 103 % of control
